This note sets out measurements from ChEMBL document CHEMBL1126576, “Structure-activity relationships of the antimalarial agent artemisinin. 1. Synthesis and comparative molecular field analysis of C-9 analogs of artemisinin and 10-deoxoartemisinin” (1993).

Activity calls are given as the source filed them. The calls are words filed in the database; no cut-off is given here.

Test [1] relates to Plasmodium falciparum. As to the kind of experiment: In vitro relative potency against Plasmodium falciparum Sierra Leone D6. Type of test: functional.
Test [2] has as its system Plasmodium falciparum. Description: Relative activity compared to artemisinin against Plasmodium falciparum Sierra Leone D6. It is filed as functional.
Test [3] has as its system Plasmodium falciparum. Description: Relative activity compared to artemisinin against Plasmodium falciparum Indochina W2. Type of test: functional.
The test system of test [4] is Plasmodium falciparum. Description: Relative activity against Plasmodium falciparum W2 Indochina compared to artemisinin. Type of test: functional.
Test [5] has as its system Plasmodium falciparum. As to the kind of experiment: Relative activity against Plasmodium falciparum D6 (Sierra Leone) compared to artemisinin. Type of test: functional.
Test [6] relates to Plasmodium falciparum. As to the kind of experiment: Relative activity compared to artemisinin against Plasmodium falciparum Indochina W-2; Not active. Type of test: functional, organism-based.
Test [7] concerns Plasmodium falciparum. Description: Relative activity compared to artemisinin against Plasmodium falciparum D6 (Sierra Leone); Not active. Type of test: functional, organism-based.

Consider `CCCC[C@H]1C(=O)O[C@@H]2OC(C)(C)OO[C@@]23CCCC[C@@H]13`, for which the Relative activity in test [1] was 0.1.
As for `C[C@@H]1CC[C@H]2[C@@H](CCCc3ccccc3)C(=O)O[C@@H]3O[C@@]4(C)CC[C@@H]1[C@]32O4`, the Relative activity in test [2] and in test [3] was 0.15 each time.
Turning to `C[C@@H]1CC[C@H]2[C@](C)(Br)[C@@H](Nc3ccccc3)O[C@@H]3O[C@@]4(C)CC[C@@H]1[C@]32OO4`, in test [1], the Relative activity is recorded as 0.16.
As for `C[C@@H]1CC[C@H]2[C@](C)(Br)[C@@H](Nc3cccc(F)c3)O[C@@H]3O[C@@]4(C)CC[C@@H]1[C@]32OO4`, in test [1], the Relative activity is given as 3.5.
With `CCCCCCCCCCCCCC[C@H]1C(=O)O[C@@H]2O[C@@]3(C)CC[C@H]4[C@H](C)CC[C@@H]1[C@@]24OO3`, the Relative activity in test [4] and in test [5] was 0.001 each time.
As to `C[C@@H]1CC[C@H]2[C@@H](CCCCc3ccccc3)C(=O)O[C@@H]3O[C@@]4(C)CC[C@@H]1[C@]32OO4`, the Relative activity in test [4] stood at 3; in test [5], 1.37.
In the case of `CC(C)CCC[C@H]1C(=O)O[C@@H]2O[C@@]3(C)CC[C@H]4[C@H](C)CC[C@@H]1[C@@]24O3`, the Relative activity entry in test [6] and in test [7] was “inactive” in each case.
With `CCC[C@H]1C(=O)O[C@@H]2O[C@@]3(C)CC[C@H]4[C@H](C)CC[C@@H]1[C@@]24OO3`, the Relative activity stood at 12.25 in test [4] and 5.5 in test [5].
Take `C[C@@H]1CC[C@H]2[C@@H](CCc3ccccc3)C(=O)O[C@@H]3O[C@@]4(C)CC[C@@H]1[C@]32OO4`: the Relative activity in test [4] stood at 1; in test [5] it was 1.69.
Regarding `C[C@@H]1CC[C@H]2CC(=O)O[C@@H]3O[C@@]4(C)CC[C@@H]1[C@@]23OO4`, the Relative activity in test [4] is listed as 6.5; in test [5], 1.8.
Take `CCC[C@H]1C(=O)O[C@@H]2O[C@@]3(C)CC[C@H]4[C@H](C)CC[C@@H]1[C@@]24O3`: the values for the Relative activity in test [2] and in test [3] were 0.06 and 0.07, respectively.
For `CO[C@H]1O[C@@]2(C)CC[C@H]3CCCC[C@]31OO2`, in test [1], the Relative activity is 0.11.
With `CCCC[C@H]1C(=O)O[C@@H]2O[C@@]3(C)CC[C@H]4[C@H](C)CC[C@@H]1[C@@]24OO3`, the Relative activity in test [4] is 1.28; in test [5] it was 0.96.
For the compound `CC(C)[C@H]1C(=O)O[C@@H]2O[C@@]3(C)CC[C@H]4[C@H](C)CC[C@@H]1[C@@]24O3`, the Relative activity in test [2] is on record as 0.02; in test [3], 0.07.
Consider `C[C@@H]1CC[C@H]2CC(=O)O[C@@H]3O[C@@]4(C)CC[C@@H]1[C@@]23O4`, for which the Relative activity result in test [6] and in test [7] was “inactive” throughout.
`C[C@@H]1CC[C@H]2[C@](C)(Br)[C@@H](Nc3ncccn3)O[C@@H]3O[C@@]4(C)CC[C@@H]1[C@]32OO4` yielded a Relative activity in test [1] of 0.01.
Still for that read-out and setting: then `CO[C@@H]1O[C@@]2(C)CC[C@H]3CCCC[C@]31OO2`, with 0.13.
With `CCCCCC[C@H]1C(=O)O[C@@H]2O[C@@]3(C)CC[C@H]4[C@H](C)CC[C@@H]1[C@@]24OO3`, the Relative activity in test [4] is listed as 5.5; in test [5], 4.67.
On to `C=CC[C@H]1C(=O)O[C@@H]2O[C@@]3(C)CC[C@H]4[C@H](C)CC[C@@H]1[C@@]24O3`, for which the Relative activity entry in test [6] and in test [7] was “inactive” each time.
On to `C[C@@H]1CC[C@H]2C(C)(C)C(=O)O[C@@H]3O[C@@]4(C)CC[C@@H]1[C@]32O4`, for which the Relative activity entry in test [6] and in test [7] was “inactive” throughout.
Regarding `CCCCC[C@H]1C(=O)O[C@@H]2O[C@@]3(C)CC[C@H]4[C@H](C)CC[C@@H]1[C@@]24O3`, the Relative activity result in test [6] and in test [7] was “inactive” each time.
Regarding `CC1CCC2C(CCc3ccccc3)C(=O)OC3OC4(C)CCC1C32O4` (configuration not stated), the Relative activity result in test [6] and in test [7] was “inactive” in each case.
As for `C[C@@H]1CC[C@H]2[C@@H](C)C(=O)O[C@@H]3OC(C)(C)OO[C@@]32[C@H]1C`, in test [1], the Relative activity was determined as 0.4.
In the case of `C[C@@H]1CC[C@H]2[C@H](C)C(=O)O[C@@H]3O[C@@]4(C)CC[C@@H]1[C@]32OO4`, the Relative activity in test [4] was found to be 0.67; in test [5] it was 0.14.
`C[C@@H]1CC[C@H]2[C@](C)(Br)[C@@H](Nc3ccccn3)O[C@@H]3O[C@@]4(C)CC[C@@H]1[C@]32OO4` came in with a Relative activity in test [1] of 0.02.
For `CC(C)CCC[C@H]1C(=O)O[C@@H]2O[C@@]3(C)CC[C@H]4[C@H](C)CC[C@@H]1[C@@]24OO3`, the Relative activity worked out at 0.74 in test [4] and 0.31 in test [5].
Turning to `CO[C@]1(C)CC[C@H]2[C@H](C)CCC[C@]2(C=O)OO1`, the Relative activity in test [1] worked out at 0.001.
Consider `CC(C)CC[C@H]1C(=O)O[C@@H]2O[C@@]3(C)CC[C@H]4[C@H](C)CC[C@@H]1[C@@]24OO3`, for which the Relative activity in test [4] is 0.98; in test [5] it was 1.57.
In the case of `CC1(C)OO[C@]23CCCC[C@H]2CC(=O)O[C@@H]3O1`, the Relative activity in test [1] stood at 0.01.
On to `CCCCCCCCCCCCCC[C@H]1C(=O)O[C@@H]2O[C@@]3(C)CC[C@H]4[C@H](C)CC[C@@H]1[C@@]24O3`, for which the Relative activity in test [4] and in test [5] was 0.05 in each case.
`C[C@]12CC[C@H]3CCCC[C@@]3(OO1)[C@H](OCc1ccccc1)O2`: the Relative activity in test [1] stood at 0.03.
As for `CC[C@H]1C(=O)O[C@@H]2O[C@@]3(C)CC[C@H]4[C@H](C)CC[C@@H]1[C@@]24O3`, the Relative activity in test [2] and in test [3] was 0.001 each time.
As to `CCCCCC[C@H]1C(=O)O[C@@H]2O[C@@]3(C)CC[C@H]4[C@H](C)CC[C@@H]1[C@@]24O3`, the Relative activity in test [2] is listed as 0.07; in test [3] it was 0.02.
In the case of `CCCC[C@H]1C(=O)O[C@@H]2O[C@@]3(C)CC[C@H]4[C@H](C)CC[C@@H]1[C@@]24O3`, the Relative activity result in test [6] and in test [7] was “inactive” each time.
As for `C=CC[C@H]1C(=O)O[C@@H]2O[C@@]3(C)CC[C@H]4[C@H](C)CC[C@@H]1[C@@]24OO3`, the values for the Relative activity in test [4] and in test [5] were 0.72 and 0.31, respectively.
On to `CC[C@H]1C(=O)O[C@@H]2O[C@@]3(C)CC[C@H]4[C@H](C)CC[C@@H]1[C@@]24OO3`, for which the figures for the Relative activity in test [4] and in test [5] were 12.26 and 6.42, respectively.
In test [1], `C[C@@H]1CCC[C@@]23CO[C@@](C)(CC[C@@H]12)OO3` came in with a Relative activity of 0.37.
As for `CC(C)[C@H]1C(=O)O[C@@H]2O[C@@]3(C)CC[C@H]4[C@H](C)CC[C@@H]1[C@@]24OO3`, the Relative activity in test [4] was determined as 0.84; in test [5], 2.03.
Taken in the same sequence, the figures for `C/C=C/CC1C(=O)O[C@@H]2O[C@@]3(C)CC[C@H]4[C@H](C)CC[C@@H]1[C@@]24OO3` (single isomer, unassigned) were 0.22 and 0.38.
As for `CCCCC[C@H]1C(=O)O[C@@H]2O[C@@]3(C)CC[C@H]4[C@H](C)CC[C@@H]1[C@@]24OO3`, the Relative activity in test [4] was 8.67; in test [5], 3.67.
`C[C@@H]1CC[C@H]2[C@](C)(Br)[C@@H](Nc3nccs3)O[C@@H]3O[C@@]4(C)CC[C@@H]1[C@]32OO4` came in with a Relative activity in test [1] of 0.62.
Regarding `C[C@@H]1CC[C@H]2[C@@H](CC(=O)O)C(=O)O[C@@H]3O[C@@]4(C)CC[C@@H]1[C@]32OO4`, the Relative activity in test [4] was determined as 0.003; in test [5], 0.002.
As to `CC1CCC2C(CCCCc3ccccc3)C(=O)OC3OC4(C)CCC1C32O4` (configuration not stated), the Relative activity entry in test [6] and in test [7] was “inactive” throughout.
Consider `CC(C)C[C@H]1C(=O)O[C@@H]2O[C@@]3(C)CC[C@H]4[C@H](C)CC[C@@H]1[C@@]24OO3`, for which the values for the Relative activity in test [4] and in test [5] were 0.24 and 0.2, respectively.
In the case of `C/C=C\CC1C(=O)O[C@@H]2O[C@@]3(C)CC[C@H]4[C@H](C)CC[C@@H]1[C@@]24OO3` (single isomer, unassigned), the Relative activity in test [4] came out at 0.07; in test [5], 0.09.
`C[C@@H]1CC[C@H]2C(C)(C)C(=O)O[C@@H]3O[C@@]4(C)CCC1[C@]32OO4` (some centres not stated): the Relative activity is recorded as 0.006 in test [4] and 0.02 in test [5].
With `CC12CCC3CCCC4CC(=O)OC(O1)C34OO2` (configuration not stated), the Relative activity in test [4] is on record as 0.96; in test [5] it was 0.24.
With `C[C@@H]1CC[C@H]2[C@H](C)C(=O)O[C@@H]3O[C@@]4(C)CC[C@@H]1[C@]32O4`, the Relative activity result in test [6] and in test [7] was “inactive” each time.
For `C[C@H]1CO[C@@H]2O[C@@]3(C)CC[C@H]4CCC[C@@H]1[C@]42OO3`, the Relative activity in test [1] is 4.02.
In the case of `C[C@@H]1CC[C@H]2[C@@H](C)C(=O)O[C@@H]3O[C@@]4(C)CC[C@@H]1[C@]32OO4` [ARTEMISININ], the Relative activity in test [4] and in test [5] was 1 each time.
Turning to `CC(C)C[C@H]1C(=O)O[C@@H]2O[C@@]3(C)CC[C@H]4[C@H](C)CC[C@@H]1[C@@]24O3`, the Relative activity result in test [6] and in test [7] was “inactive” in each case.
`C[C@@H]1CC[C@H]2[C@@H](CCCc3ccccc3)C(=O)O[C@@H]3O[C@@]4(C)CC[C@@H]1[C@]32OO4`: the Relative activity in test [4] came out at 4.45; in test [5], 6.11.
For `O=C1C=C2CCCC3CC4OO[C@@]23[C@H](O1)O4` (single isomer, unassigned), the Relative activity in test [4] and in test [5] was 0.02 each time.
